The source of these data is patent US20230322792A1, “CDK9 INHIBITORS” (Biolexis Therapeutics, Inc., priority 2022, published 2023).

A value given as a limit tells only on which side of the number the result lay.

The target in this assay is CDK9/CycT1 (Homo sapiens (Human), UniProt P50750). Put plainly: ADP-Glo Kinase Assay. The class given is biochemical. Here is the method: ADP-Glo assay kit was purchased from Promega and the CDK9/CycT1 protein and PDKtide substrate were purchased from SignalChem. […] The reaction is started by pre-incubating 4 μL of protein (20 nM), 2 μL of substrate (100 μM), and 2 μL of serial diluted drug in 1× assay buffer (50 mM HEPES, 3 mM MgCl2, 3 mM MnCl2, and 1 mM DTT) for 30 minutes. After pre-incubating, 4 μL of ATP (1 μM) is added to each well and incubated for an additional 90 minutes. The ADP-Glo Reagent (10 μL) and Kinase Detection Reagent (20 μL) are added to each well and incubated as recommended by Promega. The reaction is quantified by measuring luminescence and the IC50 is calculated using GraphPad Prism software.
CDK9/CycT1, sequence (P50750 whole entry): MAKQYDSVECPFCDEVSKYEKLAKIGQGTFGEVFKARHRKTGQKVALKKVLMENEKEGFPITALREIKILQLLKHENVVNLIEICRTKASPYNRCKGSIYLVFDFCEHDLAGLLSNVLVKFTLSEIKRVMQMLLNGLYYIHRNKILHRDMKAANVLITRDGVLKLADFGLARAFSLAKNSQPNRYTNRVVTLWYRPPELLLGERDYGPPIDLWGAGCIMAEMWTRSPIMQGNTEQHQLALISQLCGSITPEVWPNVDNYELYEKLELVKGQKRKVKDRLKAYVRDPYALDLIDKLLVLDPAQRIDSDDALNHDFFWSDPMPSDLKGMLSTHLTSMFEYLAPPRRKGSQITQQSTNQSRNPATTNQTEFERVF
CDK9/CycT1, sequence (O60563 whole entry partner): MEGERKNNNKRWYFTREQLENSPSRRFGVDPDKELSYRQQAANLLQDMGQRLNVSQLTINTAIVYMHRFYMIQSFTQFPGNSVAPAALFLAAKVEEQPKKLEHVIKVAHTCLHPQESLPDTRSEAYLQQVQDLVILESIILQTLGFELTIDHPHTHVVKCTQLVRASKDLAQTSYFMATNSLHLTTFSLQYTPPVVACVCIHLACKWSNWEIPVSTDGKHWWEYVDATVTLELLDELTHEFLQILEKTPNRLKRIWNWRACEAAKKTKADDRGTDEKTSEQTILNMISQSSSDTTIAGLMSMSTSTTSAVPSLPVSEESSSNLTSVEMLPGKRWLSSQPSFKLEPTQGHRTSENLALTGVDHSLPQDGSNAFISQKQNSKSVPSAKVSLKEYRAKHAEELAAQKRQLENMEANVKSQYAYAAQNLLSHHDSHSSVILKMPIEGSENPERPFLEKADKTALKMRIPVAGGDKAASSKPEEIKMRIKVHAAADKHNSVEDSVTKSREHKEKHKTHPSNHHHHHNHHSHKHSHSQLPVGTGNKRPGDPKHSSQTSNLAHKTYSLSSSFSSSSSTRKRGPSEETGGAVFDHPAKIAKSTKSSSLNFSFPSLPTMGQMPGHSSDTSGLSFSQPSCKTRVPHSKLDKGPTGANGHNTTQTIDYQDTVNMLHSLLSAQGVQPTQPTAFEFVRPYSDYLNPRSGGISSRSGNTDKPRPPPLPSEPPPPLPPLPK
The compound `O[C@@H]1CNCC[C@H]1CNc1nccc(-c2ccn3ncc(C4CC4)c3n2)n1` (relative stereo) [Compound I-4, trans-5-[2-(3-hydroxypiperidin-4-yl)methylaminopyrimidin-4-yl]-3-cyclopropylpyrazolo[1,5-a]pyrimidine] registered an IC50 of less than 1000 nM.

On to `O[C@@H]1CNCC[C@H]1CNc1nccc(-c2ccn3ncc(C4CCC4)c3n2)n1` (relative stereo) [Compound I-5, trans-5-[2-(3-hydroxypiperidin-4-yl)methylaminopyrimidin-4-yl]-3-cyclobutylpyrazolo[1,5-a]pyrimidine], for which the IC50 was in the range of 1000 to 5000 nM. The value for `CC(C)c1cnn2ccc(-c3ccnc(NC[C@@H]4CCNC[C@H]4O)n3)nc12` (relative stereo) [Compound I-6, trans-5-[2-(3-hydroxypiperidin-4-yl)methylaminopyrimidin-4-yl]-3-isopropylpyrazolo[1,5-a]pyrimidine] was less than 1000 nM; that for `O[C@@H]1CNCC[C@H]1CNc1nccc(-c2ccn3nccc3n2)n1` (relative stereo) [Compound I-7, trans-5-[2-(3-hydroxypiperidin-4-yl)methylaminopyrimidin-4-yl]pyrazolo[1,5-a]pyrimidine] was 1000 to 5000 nM; that for `c1cc(-c2ccn3ncc(C4CC4)c3n2)nc(N[C@H]2CC[C@H](NC3CCOCC3)CC2)n1` [Compound I-1, trans-N^1-[4-[(3-cyclopropyl)pyrazolo[1,5-a]pyrimidin-5-yl]pyrimidin-2-yl]-N^4-(tetrahydro-2H-pyran-4-yl)cyclohexane-1,4-diamine] was 1000 to 5000 nM. `c1cc(-c2ccn3ncc(C4CCC4)c3n2)nc(N[C@H]2CC[C@H](NC3CCOCC3)CC2)n1` [Compound I-2, trans-N^1-[4-[(3-cyclobutyl)pyrazolo[1,5-a]pyrimidin-5-yl]pyrimidin-2-yl]-N^4-(tetrahydro-2H-pyran-4-yl)cyclohexane-1,4-diamine]: the IC50 was 1000 to 5000 nM. Turning to `CC(C)c1cnn2ccc(-c3ccnc(N[C@H]4CC[C@H](NC5CCOCC5)CC4)n3)nc12` [Compound I-3, trans-N^1-[4-[(3-isopropyl)pyrazolo[1,5-a]pyrimidin-5-yl]pyrimidin-2-yl]-N^4-(tetrahydro-2H-pyran-4-yl)cyclohexane-1,4-diamine], the IC50 is less than 1000 nM. Take `c1cc(-c2ccn3nccc3n2)nc(NC2CCNCC2)n1` [Compound I-8, trans-5-[2-(piperidin-4-yl)aminopyrimidin-4-yl]pyrazolo[1,5-a]pyrimidine]: the IC50 fell in the range of 1000 to 5000 nM. `N[C@H]1CC[C@@H](Nc2nccc(-c3ccn4nccc4n3)n2)C1` [Compound I-9, (1S, 3R)-[3-[4-[pyrazolo[1,5-a]pyrimidin-5-yl]pyrimidin-2-yl]aminocyclopentan-1-yl]-1,3-diamine] gave an IC50 of less than 1000 nM. Take `c1cc(-c2ccn3nccc3n2)nc(N[C@H]2CC[C@H](NC3CCOCC3)CC2)n1` [Compound I-10, trans-N^1-[4-[pyrazolo[1,5-a]pyrimidin-5-yl]pyrimidin-2-yl]-N^4-(tetrahydro-2H-pyran-4-yl)cyclohexane-1,4-diamine]: the IC50 lay within 1000 to 5000 nM.

For `N[C@H]1CC[C@H](Nc2nccc(-c3ccn4nccc4n3)n2)C1` [Compound I-11, (1S, 3S)-[3-[4-[pyrazolo[1,5-a]pyrimidin-5-yl]pyrimidin-2-yl]aminocyclopentan-1-yl]-1,3-diamine], the half-maximal inhibitory concentration (IC50) was less than 1000 nM.

`Cc1cnn2ccc(-c3ccnc(N[C@H]4CC[C@H](N)C4)n3)nc12` [Compound I-12, (1S, 3S)-[3-[4-[3-methylpyrazolo[1,5-a]pyrimidin-5-yl]pyrimidin-2-yl]aminocyclopentan-1-yl]-1,3-diamine] yielded an IC50 of less than 1000 nM. For `Cc1cc2nc(-c3ccnc(N[C@H]4CC[C@H](N)C4)n3)ccn2n1` [Compound I-13, (1S, 3S)-[3-[4-[2-methylpyrazolo[1,5-a]pyrimidin-5-yl]pyrimidin-2-yl]aminocyclopentan-1-yl]-1,3-diamine], the IC50 is 5000 to 10000 nM. With `CC(C)c1cnn2ccc(-c3ccnc(N[C@H]4CC[C@H](N)C4)n3)nc12` [Compound I-14, (1S, 3S)-[3-[4-[3-isopropylpyrazolo[1,5-a]pyrimidin-5-yl]pyrimidin-2-yl]aminocyclopentan-1-yl]-1,3-diamine], the IC50 was less than 1000 nM.

In general, IC50 refers to the point on the concentration scale where inhibition reaches its midpoint. A low value points to higher potency.
